Patent publication US20020164333A1, “Bifunctional molecules and vectors complexed therewith for targeted gene delivery” (The Scripps Research Institute, priority 2000, published 2002)

Tested on: M21-L12 melanoma cells
Test: Ad-mediated gene delivery after pretreatment of cells with PI3K inhibitors
Format: cell-based, human
Experimental: Efficient Ad internalization via αv integrins requires activation of PI3K, a key cellular signaling molecule. […] Ad mediated gene delivery was analyzed 48 hours post infection.

SMILES | inhibition of Ad-mediated gene delivery (cells pretreated 30 min with wortmannin (30 nM) or LY292004 (20 μM) before Ad.RSV.βgal complexed with D or DT, 48 hours post infection) [%] | inhibition at 0.03 µM (Homo sapiens, read-out: inhibition of Ad-mediated gene delivery) [%]
O=c1cc(N2CCOCC2)oc2c(-c3ccccc3)cccc12 [LY294002] | ~50 | 
COC[C@H]1OC(=O)c2coc3c2[C@@]1(C)C1=C(C3=O)[C@@H]2CCC(=O)[C@@]2(C)C[C@H]1OC(C)=O [Wortmannin, wortmannin] |  | ~70
